The text below walks through data of patent US7790738B2, “Methods of treating and preventing AIDS using of COX-2 inhibitors” (Lauras AS, priority 2000, dated 2010).

Several values for one entry are separate records, joined by “and”; a condition that tells them apart may be missing. Equal entries are not always repeated. Where two headings read alike, the source gives them in different places. Marks after values point to notes of the source that are not given here.

The test system of data set [1] is lymph node mononuclear cells from MAIDS and control mice. In words: anti-CD3 induced T cell proliferation in mixed unsorted lymph node cells, compound added in vitro. The data set is classed as cell-based, mouse. As to the method: T cell activation was accomplished by cross-ligation of anti-CD3 (mAb 2C11; 4 μg/ml). […] Cells were cultured for 72 h during which [^3H] -thymidine was included for the last 4 h;
T cell activation was accomplished by cross-ligation of anti-CD3 (mAb 2C11; 4 μg/ml). […] Cells were cultured for 72 h during which [^3H ]-thymidine was included for the last 4 h;
The optimal concentration of antibody was titrated carefully in the initial setup and parallel experiments at several different dilutions of antibody was always performed. Proliferation was analyzed by incubating cells for 72 hours during which [^3H]-thymidine (0.4 μCi) was included for the last 4 hours and collected with a cell harvester (Skatron, Sterling, Va., USA) onto glass fiber filters. Incorporated precursor was counted in a scintillation analyzer (Tri-Carb, Packard, Meriden, Conn., USA). cAMP analogs, when used, were added 30 min prior to activation by addition of anti-CD3 antibodies.

For data set [2], the system named is HIV infected patients. Nature of the data set: phase II clinical trial, indomethacin in vivo, T cell proliferation after activation. The following applies: for T cell immune function, patients responding: 7 patients. As to the method:
T cell activation was accomplished by cross-ligation of anti-CD3 (mAb SpVT3b). […] Bars show mean values±SD from triplicate determinations. Cells were cultured for 72 h during which [^3H]-thymidine was included for the last 16 h;
Mean values from triplicate determinations are plotted, connector lines show development of each patient;
Peripheral blood CD3+ T cells were purified by negative selection from buffycoats from normal healthy donors (Ullevaal University Hospital Blood Center, Oslo, Norway). Briefly, peripheral blood mononuclear cells were isolated by density gradient (Lymphoprep, NycoMed, Oslo, Norway) centrifugation followed by negative selection using monodisperse magnetic beads directly coated with antibodies to CD14 and CD19 and rat anti-mouse IgG beads coated with antibodies to CD56 and a magnet. […] All steps were performed at 4° C.
Proliferation assays were performed by incubation of 0.75×10^6 CD3+ T cells/ml in a 100 μl volume in flat-bottom 96-well microtiter plates. […] The optimal concentration of antibody was titrated carefully in the initial setup and parallel experiments at several different dilutions of antibody were always performed. Proliferation was analyzed by incubating cells for 72 hours during which [^3H]-thymidine was included for the last 16 hours. Cells were washed and harvested onto glass filters and subsequently analyzed by β-scintillation counting. CAMP analogs, when used, were added 30 min prior to activation by addition of anti-CD3 antibodies. 8-CPT-cAMP was from Sigma (St. Louis, Mo.).

In data set [3] the target is COX-1 (Cavia porcellus, UniProt H0V9X9). The following applies: read-out: COX-1 IC50; guinea pig macrophage model; Engelhart et al. 1995; cited from earlier work.
Data set [4] has as its target T1, COX-2 (Mus musculus, UniProt Q05769).
T1 construct: endogenous in cells
T1 sequence (Q05769 18-604): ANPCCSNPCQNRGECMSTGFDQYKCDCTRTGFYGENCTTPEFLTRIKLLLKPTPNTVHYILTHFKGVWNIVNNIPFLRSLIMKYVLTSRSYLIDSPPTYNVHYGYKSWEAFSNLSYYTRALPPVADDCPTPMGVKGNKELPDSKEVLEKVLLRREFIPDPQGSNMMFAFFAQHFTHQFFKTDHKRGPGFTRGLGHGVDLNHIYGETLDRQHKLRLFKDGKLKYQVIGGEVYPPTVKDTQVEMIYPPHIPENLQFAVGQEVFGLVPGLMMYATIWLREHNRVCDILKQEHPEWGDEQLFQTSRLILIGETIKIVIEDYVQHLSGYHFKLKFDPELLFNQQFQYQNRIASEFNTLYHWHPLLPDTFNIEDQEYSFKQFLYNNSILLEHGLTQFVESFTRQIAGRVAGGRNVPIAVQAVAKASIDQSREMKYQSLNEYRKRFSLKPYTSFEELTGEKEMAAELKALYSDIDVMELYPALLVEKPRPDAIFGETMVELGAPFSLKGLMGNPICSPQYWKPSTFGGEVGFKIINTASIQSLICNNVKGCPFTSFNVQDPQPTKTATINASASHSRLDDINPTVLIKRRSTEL
The settings on record: cited from earlier work; for IC50: read-out: COX-2 IC50.

Data set [5] has as its target T2, COX-1 (Bos taurus, UniProt O62664).
T2 construct: IC50 values for NSAID's in intact cell on COX-1; endogenous in cells; host or cells: bovine endothelial cells
T2 sequence (O62664 25-600): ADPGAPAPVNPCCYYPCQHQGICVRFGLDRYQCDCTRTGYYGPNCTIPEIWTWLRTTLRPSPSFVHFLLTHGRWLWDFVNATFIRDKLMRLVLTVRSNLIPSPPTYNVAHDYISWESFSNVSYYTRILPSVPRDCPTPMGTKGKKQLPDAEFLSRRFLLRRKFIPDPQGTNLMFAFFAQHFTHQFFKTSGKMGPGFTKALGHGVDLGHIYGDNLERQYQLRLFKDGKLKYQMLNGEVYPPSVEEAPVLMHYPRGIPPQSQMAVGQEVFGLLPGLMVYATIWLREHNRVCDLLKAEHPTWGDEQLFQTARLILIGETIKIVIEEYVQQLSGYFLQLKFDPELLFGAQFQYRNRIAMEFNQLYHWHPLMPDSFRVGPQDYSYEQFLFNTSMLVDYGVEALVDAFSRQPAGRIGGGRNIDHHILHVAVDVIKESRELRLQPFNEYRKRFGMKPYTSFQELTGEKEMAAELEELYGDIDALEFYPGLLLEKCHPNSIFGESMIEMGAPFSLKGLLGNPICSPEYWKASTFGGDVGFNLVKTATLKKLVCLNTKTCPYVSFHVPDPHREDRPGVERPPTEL

Data set [6] concerns the target T3, COX-2 (Homo sapiens, UniProt P35354).
T3 sequence (P35354 18-604): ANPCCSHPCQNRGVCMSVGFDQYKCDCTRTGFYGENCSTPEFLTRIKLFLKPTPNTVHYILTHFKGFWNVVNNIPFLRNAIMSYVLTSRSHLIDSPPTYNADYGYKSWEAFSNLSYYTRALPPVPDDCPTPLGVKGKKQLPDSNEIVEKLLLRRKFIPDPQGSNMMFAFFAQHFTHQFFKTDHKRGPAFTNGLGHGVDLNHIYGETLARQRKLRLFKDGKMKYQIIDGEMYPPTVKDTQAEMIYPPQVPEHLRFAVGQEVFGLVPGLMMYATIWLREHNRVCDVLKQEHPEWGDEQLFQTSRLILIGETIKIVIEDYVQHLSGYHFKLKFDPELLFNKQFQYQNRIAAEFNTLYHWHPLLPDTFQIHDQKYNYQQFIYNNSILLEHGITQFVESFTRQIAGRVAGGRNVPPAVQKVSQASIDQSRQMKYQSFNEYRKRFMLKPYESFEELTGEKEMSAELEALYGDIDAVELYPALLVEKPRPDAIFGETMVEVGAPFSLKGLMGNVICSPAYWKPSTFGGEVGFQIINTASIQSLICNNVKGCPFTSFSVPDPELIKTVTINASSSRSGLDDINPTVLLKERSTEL
The settings on record: cited from earlier work; for IC50: read-out: COX-2 IC50; for COX-2 selectivity COX-1/COX-2: ratio of IC50, recombinant human enzymes.

Data set [7] addresses COX-1 (Homo sapiens, UniProt P23219). The settings on record: recombinant human PGH synthesis; Laneuvill et al. 1994; cited from earlier work.
Data set [8] deals with CD3+ T cells from MAIDS and control mice. In words: TCR/CD3 stimulated proliferation of isolated T cells, [3H]-thymidine incorporation. The format is cell-based, mouse. The following applies: median, read-out: Inhibition of proliferation by 8-CPT-cAMP (IC50). As to the method: TCR/CD3 stimulated T cell proliferation was assessed with isolated T cells from MAIDS mice (A) and uninfected control mice (B). The effect of increasing concentrations of cAMP agonist (8-CPT-cAMP) on TCR/CD3 stimulated proliferation of CD3+ T cells isolated from MAIDS (open circles, dotted line) and control mice (filled circles and solid line) was examined separately in the same experiments (C). Mean values of triplicate determinations±SD are shown. See Table 4 for summarised data (n=11). Note: Scaling differs in A and B, whereas in C the TCR/CD3 induced proliferation in the absence of cAMP agonist is normalized to 100% for both MAIDS and control T cells;
Activation was achieved by subsequent addition of monodisperse magnetic beads coated with sheep anti-mouse IgG (Dynal, cat. no. 110.02) at a cell:bead ratio of 1:1 followed by addition of anti-CD3 (clone 2C11) at a final dilution of 4 μg/ml for the experiments shown. […] 8-CPT-cAMP was from Sigma (St. Louis, Mo.) and Sp- and Rp-8-Br-cAMPS were from BioLog Life Science Company (Bremen, Germany) and were all dissolved to concentrations of 4 to 10 mM in PBS and concentrations calculated using the extinction coefficients given by the manufacturer.
For orientation: Uptake of a labelled nucleoside into DNA is a usual measure of proliferation.

[9] abbreviates: read-out: COX-1 IC50; intact cell, bovine endothelial cells; Taketo 1998; cited from earlier work.
Setting [10] is: intact cell, bovine endothelial cells; Taketo 1998; read-out: COX-1 IC50; cited from earlier work.
Where [11] appears, read: recombinant human PGH synthesis, Laneuvill et al. 1994.
[12] abbreviates: intact cell, stimulated macrophages, Taketo 1998.

COX-1 (Cavia porcellus, UniProt H0V9X9), sequence (H0V9X9 entry or part of it): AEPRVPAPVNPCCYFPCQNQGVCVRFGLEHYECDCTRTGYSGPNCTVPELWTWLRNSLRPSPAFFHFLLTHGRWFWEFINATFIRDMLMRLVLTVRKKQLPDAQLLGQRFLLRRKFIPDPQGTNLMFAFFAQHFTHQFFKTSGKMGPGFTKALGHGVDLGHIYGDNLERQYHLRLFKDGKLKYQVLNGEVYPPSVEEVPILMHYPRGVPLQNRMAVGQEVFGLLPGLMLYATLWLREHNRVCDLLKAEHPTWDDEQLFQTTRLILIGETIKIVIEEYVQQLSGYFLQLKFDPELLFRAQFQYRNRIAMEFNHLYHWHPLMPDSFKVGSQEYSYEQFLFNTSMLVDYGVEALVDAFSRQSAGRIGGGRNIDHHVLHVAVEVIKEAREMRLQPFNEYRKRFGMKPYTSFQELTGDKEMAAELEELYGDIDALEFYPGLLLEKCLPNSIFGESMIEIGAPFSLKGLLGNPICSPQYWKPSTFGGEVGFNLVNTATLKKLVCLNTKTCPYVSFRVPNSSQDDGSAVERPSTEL
COX-1 (Homo sapiens, UniProt P23219), sequence (P23219 24-599): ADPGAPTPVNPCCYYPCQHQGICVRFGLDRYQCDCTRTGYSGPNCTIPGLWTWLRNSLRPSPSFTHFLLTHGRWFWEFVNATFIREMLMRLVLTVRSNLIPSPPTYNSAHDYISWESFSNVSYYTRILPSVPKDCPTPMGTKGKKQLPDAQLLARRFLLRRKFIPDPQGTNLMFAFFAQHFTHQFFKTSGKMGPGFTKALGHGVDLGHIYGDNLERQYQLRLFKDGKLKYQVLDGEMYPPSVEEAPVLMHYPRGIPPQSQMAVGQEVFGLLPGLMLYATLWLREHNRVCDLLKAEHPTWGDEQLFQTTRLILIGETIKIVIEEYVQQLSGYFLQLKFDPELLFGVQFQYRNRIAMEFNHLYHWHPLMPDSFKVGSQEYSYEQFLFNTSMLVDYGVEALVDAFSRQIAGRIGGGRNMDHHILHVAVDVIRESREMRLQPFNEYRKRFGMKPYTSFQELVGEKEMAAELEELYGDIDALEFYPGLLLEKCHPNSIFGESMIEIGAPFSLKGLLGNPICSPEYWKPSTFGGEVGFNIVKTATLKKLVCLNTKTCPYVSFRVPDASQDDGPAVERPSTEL

On to `COc1ccc2c(c1)c(CC(=O)O)c(C)n2C(=O)c1ccc(Cl)cc1` [Indomethacin], for which the “T cell proliferation, Indomethacin” value in data set [1] (MAIDS mice, median, n = 7, no anti-CD3) is 1412; in data set [1] (individual MAIDS mice, no anti-CD3, indomethacin 50 ng/ml), 2363 and 7316 and 1412 and 1129 and 265 and 335 and 4317. In addition, the “T cell proliferation, Indomethacin/Anti-CD3” value in data set [1] (MAIDS mice, median, n = 8, anti-CD3 plus indomethacin) was 15601**; in data set [1] (individual MAIDS mice, anti-CD3 plus indomethacin 50 ng/ml), 19624 and 31830 and 42244 and 9381 and 47926 and 1345 and 11579 and 8545. The “effect on anti-CD3 induced proliferation” value in data set [1] (control cultures of uninfected mice, indomethacin) is reported as “did not alter proliferation”; in data set [1] (mixed lymph node cells of five MAIDS-infected mice, 72 h), “strongly increased the proliferation of cells from five MAIDS-infected mice to levels comparable to that of control mice”. In addition, the “T cell immune function, patients responding” value in data set [2] (after 14 days of treatment, 25 mg three times a day) was “two of seven patients had clearly elevated T cell immune function”; in data set [2] (two weeks after discontinuation, versus day 0) it was “five of seven patients had elevated immune responsiveness”. Also, the adverse events result in data set [2] (HIV patients, 50 mg 3 times a day) was “epigastrial pain and dyspepsia”. Besides, the “increase of T cell responses after in vivo treatment” value in data set [2] (patient 3, 25 mg three times a day perorally, 14 days, persisted to day 28) is “approximately 2.5 fold”. Also, in data set [2] (patients 1 and 2, 25 mg three times a day perorally, 14 days), the “T cell immune function after in vivo treatment” value is listed as “did not increase their immune function”. In addition, in data set [3], the IC50 was 0.21 nM.

For the compound `CC(C(=O)O)c1ccc2c(c1)[nH]c1ccc(Cl)cc12` (stereo not shown) [Carprofen], in data set [4], the “COX-2 selectivity COX-1/COX-2” value is 1 and the IC50 was 3000 nM. Moreover, in data set [5] (setting [9]), the IC50 was 3000 nM.

Take `O=C(O)Cc1ccccc1Nc1c(Cl)cccc1Cl` [Diclofenac]: the IC50 in data set [3] was 0.855 nM.

Turning to `CC(=O)Nc1ccc(O)cc1` [Acetaminophen], in data set [5] (setting [10]), the IC50 is 2700 nM.

Take `NC1=NN(c2cccc(C(F)(F)F)c2)CC1` [BW 755C]: the IC50 in data set [5] (setting [9]) was 650 nM.

In the case of `NC(=O)N1C(=O)/C(=C(\O)c2cccs2)c2cc(Cl)ccc21` [Teridep], in data set [3], the IC50 was 393 nM.

Take `CCCCC1C(=O)N(c2ccccc2)N(c2ccccc2)C1=O` [Phenylbutazone]: the IC50 in data set [6] (setting [11]) is more than 100000 nM.

`CCc1cccc2c3c([nH]c12)C(CC)(CC(=O)O)OCC3` (stereo not shown) [Etodolac]: in data set [6], the IC50 was 60000 nM.

For the compound `COc1ccc2cc([C@H](C)C(=O)O)ccc2c1` [Naproxen], the IC50 in data set [4] is 1300 nM.

Regarding `O=C(c1ccccc1)c1ccc2n1CCC2C(=O)O` (stereo not shown) [Ketorolac tromethamine], the “COX-2 selectivity COX-1/COX-2” value in data set [6] was 0.5. The IC50 in data set [7] is 31500 nM.

As to `CC/C=C\C/C=C\C/C=C\C/C=C\C/C=C\C/C=C\CCC(=O)O` [DHA (22:6)], in data set [6], the “COX-2 selectivity COX-1/COX-2” value is given as 0.6. Moreover, the IC50 in data set [6] (setting [11]) was 41000 nM; in data set [7] it was 25600 nM.

With `CN1OCC/C(=C\c2cc(C(C)(C)C)c(O)c(C(C)(C)C)c2)C1=O` [BF 389], the IC50 in data set [4] (setting [12]) is 30 nM; in data set [5] (setting [10]) it was 150 nM. The “COX-2 selectivity COX-1/COX-2” value in data set [4] (ratio of IC50, intact cells) is recorded as 5.

With `CN1C(C(=O)Nc2ccccn2)=C(O)c2ccccc2S1(=O)=O` [Piroxicam], the IC50 in data set [3] is 5.27 nM.

As to `CC(C(=O)O)c1ccc(-c2ccccc2)c(F)c1` (stereo not shown) [Flubiprofen], the IC50 in data set [5] (setting [10]) is 20 nM.

In the case of `Nc1ncnc2c1nc(Sc1ccc(Cl)cc1)n2[C@@H]1O[C@@H]2COP(=O)(O)O[C@H]2[C@H]1O` [8-CPT-cAMP], the IC50 in data set [8] (MAIDS mice, n = 5) turned out to be 220 nM; in data set [8] (control mice, n = 4), 400 nM.

For the compound `O=C([O-])c1ccccc1O.[Na+]` [Sodium salicylate], the IC50 is 100000 nM in data set [4] (setting [12]) and 35000 nM in data set [5] (setting [10]). Moreover, the “COX-2 selectivity COX-1/COX-2” value in data set [4] (ratio of IC50, intact cells) is reported as 0.35.

For `Cc1c(Cl)cccc1Nc1ccccc1C(=O)O` [Tolfenamic acid], the IC50 in data set [4] (setting [12]) was 5 nM; in data set [5] (setting [10]), 0.3 nM. Moreover, in data set [4] (ratio of IC50, intact cells), the “COX-2 selectivity COX-1/COX-2” value was 0.06.
